Experimental data: ChEMBL document CHEMBL3593212, “Synthesis and evaluation of novel 1H-pyrrolo[2,3-b]pyridine-5-carboxamide derivatives as potent and orally efficacious immunomodulators targeting JAK3” (Bioorg Med Chem, 2015)

Legend:
[1] = Tmax in Sprague-Dawley rat at 3 mg/kg, po by LC/MS/MS method; assay type: ADME, organism-based; settings: in vivo
[2] = Oral bioavailability in cynomolgus monkey at 3 mg/kg by LC/MS/MS method; assay type: ADME, organism-based, Macaca fascicularis; settings: in vivo
[3] = Total clearance in cynomolgus monkey at 1 mg/kg, iv by LC/MS/MS method; assay type: ADME, organism-based, Macaca fascicularis; settings: in vivo
[4] = target: Serine/threonine-protein kinase Chk1 (Homo sapiens, UniProt O14757); assay: Inhibition of CHK1 (unknown origin)
[5] = Inhibition of JAK1/JAK3 in Lewis rat splenocytes assessed as reduction in IL2-stimulated T-cell proliferation incubated for 3 days by alamar blue dye based fluorescence assay; settings: 72 h
[6] = target: Rho-associated protein kinase 1 (Homo sapiens, UniProt Q13464); assay: Inhibition of ROCK1 (unknown origin)
[7] = target: Protein kinase C theta type (Homo sapiens, UniProt Q04759); assay: Inhibition of PKCtheta (unknown origin)
[8] = target: Glycogen synthase kinase-3 beta (Homo sapiens, UniProt P49841); assay: Inhibition of GSK3beta (unknown origin)
[9] = target: Tyrosine-protein kinase JAK2 (Homo sapiens, UniProt O60674); assay: Inhibition of human JAK2 kinase domain using biotin-Lyn-substrate-2 as substrate incubated for 1 hr by ELISA method
[10] = AUC (0 to 24 hrs) in cynomolgus monkey at 1 mg/kg, iv by LC/MS/MS method; assay type: ADME, organism-based, Macaca fascicularis; set-up: time < 24 hr, dose 1 mg/kg, route intravenous; settings: in vivo
Ephrin type-A receptor 2 = Ephrin type-A receptor 2 (Homo sapiens, UniProt P29317); assay: Inhibition of EPHA2 (unknown origin)
[11] = target: Bone morphogenetic protein receptor type-1A (Homo sapiens, UniProt P36894); assay: Inhibition of BMPR1A (unknown origin)
[12] = AUC (0 to 24 hrs) in cynomolgus monkey at 3 mg/kg, po by LC/MS/MS method; assay type: ADME, organism-based, Macaca fascicularis; set-up: time < 24 hr, dose 3 mg/kg, route oral; settings: in vivo
[13] = Half life in cynomolgus monkey at 1 mg/kg, iv by LC/MS/MS method; assay type: ADME, organism-based, Macaca fascicularis; settings: in vivo
[14] = target: Mitogen-activated protein kinase kinase kinase 9 (Homo sapiens, UniProt P80192); assay: Inhibition of MLK1 (unknown origin)
[15] = target: RAC-alpha serine/threonine-protein kinase (Homo sapiens, UniProt P31749); assay: Inhibition of AKT1 (unknown origin)
[16] = AUC (0 to 24 hrs) in beagle dog at 1 mg/kg, iv by LC/MS/MS method; assay type: ADME, organism-based, Canis lupus familiaris; set-up: dose 1 mg/kg, time < 24 hr, route intravenous; settings: in vivo
[17] = Intrinsic clearance in human liver microsomes at 0.2 uM in presence of NADPH generating system by LC/MS/MS method; assay type: ADME; settings: read-out: CLH
[18] = Total clearance in beagle dog at 1 mg/kg, iv by LC/MS/MS method; assay type: ADME, organism-based, Canis lupus familiaris; settings: in vivo

Sequence of Serine/threonine-protein kinase Chk1 (O14757 whole entry): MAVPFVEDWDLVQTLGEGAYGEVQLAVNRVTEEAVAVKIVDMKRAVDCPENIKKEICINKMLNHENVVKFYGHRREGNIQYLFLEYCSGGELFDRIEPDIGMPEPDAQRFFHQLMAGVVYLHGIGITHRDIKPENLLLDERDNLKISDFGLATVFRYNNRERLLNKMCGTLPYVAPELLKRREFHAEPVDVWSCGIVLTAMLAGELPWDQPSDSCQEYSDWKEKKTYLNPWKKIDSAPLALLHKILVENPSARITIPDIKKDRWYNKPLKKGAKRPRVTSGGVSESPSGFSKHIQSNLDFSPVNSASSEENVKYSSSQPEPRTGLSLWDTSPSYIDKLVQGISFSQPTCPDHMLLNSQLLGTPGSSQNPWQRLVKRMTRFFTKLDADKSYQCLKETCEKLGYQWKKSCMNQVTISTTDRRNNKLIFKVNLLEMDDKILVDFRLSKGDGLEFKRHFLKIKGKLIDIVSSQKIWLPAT
Sequence of Glycogen synthase kinase-3 beta (P49841 whole entry, the tested form may be a part): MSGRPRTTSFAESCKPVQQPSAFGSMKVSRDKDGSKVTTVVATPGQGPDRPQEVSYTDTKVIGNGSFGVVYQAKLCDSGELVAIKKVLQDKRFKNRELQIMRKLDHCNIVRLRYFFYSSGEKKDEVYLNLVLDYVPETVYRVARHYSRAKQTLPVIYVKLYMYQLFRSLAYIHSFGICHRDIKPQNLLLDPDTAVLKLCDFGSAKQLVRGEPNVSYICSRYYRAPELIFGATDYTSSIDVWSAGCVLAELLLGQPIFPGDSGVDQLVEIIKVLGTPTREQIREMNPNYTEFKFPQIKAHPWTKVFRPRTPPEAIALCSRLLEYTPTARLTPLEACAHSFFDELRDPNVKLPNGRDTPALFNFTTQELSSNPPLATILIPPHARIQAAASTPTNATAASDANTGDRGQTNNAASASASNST
Sequence of RAC-alpha serine/threonine-protein kinase (P31749 whole entry): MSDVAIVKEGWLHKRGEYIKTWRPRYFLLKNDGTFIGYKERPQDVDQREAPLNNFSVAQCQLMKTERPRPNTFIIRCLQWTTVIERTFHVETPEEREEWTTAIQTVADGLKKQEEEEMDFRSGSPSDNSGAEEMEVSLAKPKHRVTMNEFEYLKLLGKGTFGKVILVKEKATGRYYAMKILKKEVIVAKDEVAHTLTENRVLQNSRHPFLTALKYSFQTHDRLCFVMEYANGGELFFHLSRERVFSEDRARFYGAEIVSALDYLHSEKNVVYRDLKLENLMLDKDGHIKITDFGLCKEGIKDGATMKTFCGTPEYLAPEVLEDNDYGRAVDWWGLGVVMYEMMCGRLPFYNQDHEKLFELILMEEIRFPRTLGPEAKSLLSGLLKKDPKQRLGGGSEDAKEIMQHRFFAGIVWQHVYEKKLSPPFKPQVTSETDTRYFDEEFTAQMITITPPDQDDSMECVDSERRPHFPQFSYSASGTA
Sequence of Tyrosine-protein kinase JAK2 (O60674 whole entry, the tested form may be a part): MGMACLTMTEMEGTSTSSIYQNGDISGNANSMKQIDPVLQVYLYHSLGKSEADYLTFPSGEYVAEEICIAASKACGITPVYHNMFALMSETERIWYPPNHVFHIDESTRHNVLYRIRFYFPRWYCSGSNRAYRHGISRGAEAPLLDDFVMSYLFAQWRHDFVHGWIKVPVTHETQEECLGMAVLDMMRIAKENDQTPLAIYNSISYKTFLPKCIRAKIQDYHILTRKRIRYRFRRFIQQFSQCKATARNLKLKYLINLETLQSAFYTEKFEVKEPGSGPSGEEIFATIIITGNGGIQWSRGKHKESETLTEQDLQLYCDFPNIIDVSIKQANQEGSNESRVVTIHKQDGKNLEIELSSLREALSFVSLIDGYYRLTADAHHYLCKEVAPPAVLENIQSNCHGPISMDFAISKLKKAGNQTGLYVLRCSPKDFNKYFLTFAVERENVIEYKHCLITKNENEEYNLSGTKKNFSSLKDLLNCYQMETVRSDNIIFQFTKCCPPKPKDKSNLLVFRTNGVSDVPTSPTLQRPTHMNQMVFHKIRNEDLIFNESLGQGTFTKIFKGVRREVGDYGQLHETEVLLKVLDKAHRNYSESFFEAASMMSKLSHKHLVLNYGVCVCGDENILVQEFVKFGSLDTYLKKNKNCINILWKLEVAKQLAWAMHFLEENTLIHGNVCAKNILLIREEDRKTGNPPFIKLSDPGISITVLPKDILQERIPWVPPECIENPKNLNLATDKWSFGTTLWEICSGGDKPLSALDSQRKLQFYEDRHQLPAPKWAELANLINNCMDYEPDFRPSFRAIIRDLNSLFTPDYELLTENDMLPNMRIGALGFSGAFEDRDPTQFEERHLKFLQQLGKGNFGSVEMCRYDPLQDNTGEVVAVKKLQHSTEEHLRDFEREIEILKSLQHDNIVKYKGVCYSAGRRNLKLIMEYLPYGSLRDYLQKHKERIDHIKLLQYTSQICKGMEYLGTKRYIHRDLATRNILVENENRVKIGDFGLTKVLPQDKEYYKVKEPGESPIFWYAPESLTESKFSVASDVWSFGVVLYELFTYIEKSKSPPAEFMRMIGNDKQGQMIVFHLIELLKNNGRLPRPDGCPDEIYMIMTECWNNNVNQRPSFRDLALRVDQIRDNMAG
Sequence of Ephrin type-A receptor 2 (P29317 whole entry): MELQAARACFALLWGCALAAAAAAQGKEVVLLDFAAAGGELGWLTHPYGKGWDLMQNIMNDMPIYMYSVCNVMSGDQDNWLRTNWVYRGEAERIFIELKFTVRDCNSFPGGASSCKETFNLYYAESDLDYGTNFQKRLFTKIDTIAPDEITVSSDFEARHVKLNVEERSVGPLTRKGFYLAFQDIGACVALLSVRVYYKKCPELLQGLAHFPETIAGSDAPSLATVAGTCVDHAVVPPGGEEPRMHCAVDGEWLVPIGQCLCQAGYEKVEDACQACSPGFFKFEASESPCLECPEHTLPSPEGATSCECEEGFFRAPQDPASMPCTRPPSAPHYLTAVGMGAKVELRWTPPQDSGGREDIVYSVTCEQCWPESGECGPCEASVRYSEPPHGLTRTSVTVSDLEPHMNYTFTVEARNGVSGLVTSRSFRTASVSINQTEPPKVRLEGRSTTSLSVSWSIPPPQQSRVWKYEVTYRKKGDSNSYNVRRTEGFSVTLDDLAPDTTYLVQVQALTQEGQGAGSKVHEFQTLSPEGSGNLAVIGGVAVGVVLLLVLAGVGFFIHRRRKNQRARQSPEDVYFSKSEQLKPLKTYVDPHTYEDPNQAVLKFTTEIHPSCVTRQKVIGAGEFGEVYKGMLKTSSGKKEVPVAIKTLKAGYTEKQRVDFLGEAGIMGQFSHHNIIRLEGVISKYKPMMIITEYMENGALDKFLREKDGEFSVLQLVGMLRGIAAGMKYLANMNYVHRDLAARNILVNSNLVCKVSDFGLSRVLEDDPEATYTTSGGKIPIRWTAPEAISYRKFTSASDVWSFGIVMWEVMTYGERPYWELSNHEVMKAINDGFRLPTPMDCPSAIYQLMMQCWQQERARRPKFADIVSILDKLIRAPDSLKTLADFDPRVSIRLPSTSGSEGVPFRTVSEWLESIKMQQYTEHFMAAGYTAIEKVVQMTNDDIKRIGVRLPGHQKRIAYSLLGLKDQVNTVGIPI
Sequence of Bone morphogenetic protein receptor type-1A (P36894 whole entry): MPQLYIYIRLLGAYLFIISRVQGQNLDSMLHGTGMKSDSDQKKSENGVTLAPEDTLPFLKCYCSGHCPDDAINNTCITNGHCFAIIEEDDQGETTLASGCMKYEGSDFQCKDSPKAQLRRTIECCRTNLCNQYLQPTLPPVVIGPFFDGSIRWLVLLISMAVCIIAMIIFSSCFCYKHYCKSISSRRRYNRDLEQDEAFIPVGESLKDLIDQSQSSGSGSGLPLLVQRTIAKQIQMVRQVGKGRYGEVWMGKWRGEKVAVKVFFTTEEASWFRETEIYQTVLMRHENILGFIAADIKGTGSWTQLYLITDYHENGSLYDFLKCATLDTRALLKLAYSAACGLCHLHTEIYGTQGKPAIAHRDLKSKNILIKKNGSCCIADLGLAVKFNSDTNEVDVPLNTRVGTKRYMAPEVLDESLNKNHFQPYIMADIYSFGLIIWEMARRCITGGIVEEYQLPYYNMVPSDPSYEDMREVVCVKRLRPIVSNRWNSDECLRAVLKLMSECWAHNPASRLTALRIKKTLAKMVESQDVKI
Sequence of Protein kinase C theta type (Q04759 whole entry): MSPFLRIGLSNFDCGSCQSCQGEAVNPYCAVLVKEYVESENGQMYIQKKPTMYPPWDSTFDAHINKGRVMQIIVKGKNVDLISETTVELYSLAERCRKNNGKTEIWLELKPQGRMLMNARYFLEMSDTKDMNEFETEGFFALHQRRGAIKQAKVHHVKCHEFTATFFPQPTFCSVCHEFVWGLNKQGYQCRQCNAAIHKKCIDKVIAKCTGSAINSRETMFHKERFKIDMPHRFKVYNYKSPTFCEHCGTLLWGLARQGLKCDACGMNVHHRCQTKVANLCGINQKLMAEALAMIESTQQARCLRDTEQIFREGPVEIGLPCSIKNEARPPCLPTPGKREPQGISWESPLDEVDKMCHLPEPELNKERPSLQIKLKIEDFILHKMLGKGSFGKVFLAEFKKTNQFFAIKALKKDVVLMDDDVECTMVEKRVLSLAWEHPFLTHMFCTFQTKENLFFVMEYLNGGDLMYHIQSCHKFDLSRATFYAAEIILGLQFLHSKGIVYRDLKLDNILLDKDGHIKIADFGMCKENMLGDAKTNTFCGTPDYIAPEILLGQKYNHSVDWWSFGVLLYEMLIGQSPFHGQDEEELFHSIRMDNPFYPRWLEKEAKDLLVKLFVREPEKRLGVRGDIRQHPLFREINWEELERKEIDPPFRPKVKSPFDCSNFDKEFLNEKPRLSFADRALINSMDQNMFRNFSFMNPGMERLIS

N#Cc1ccc(N2CC[C@@H](Nc3c(C(N)=O)cnc4[nH]ccc34)[C@@H](F)C2)nc1
Tmax [1]: 3.3 h | bioavailability [2]: 64.3% | clearance [3]: 3.8 mL/min/kg | IC50 [4]: 950 nM | IC50 [5]: 11 nM | IC50 [6]: 190 nM | IC50 [7]: 320 nM | IC50 [8]: 980 nM | IC50 [9]: 3.2 nM | AUC(0-t) at 24 h [10]: 4490 ng·h/mL | IC50 (Ephrin type-A receptor 2): > 1000 nM | IC50 [11]: > 1000 nM | AUC(0-t) at 24 h [12]: 8690 ng·h/mL | half-life [13]: 5.4 h | IC50 [14]: 51 nM | IC50 [15]: > 1000 nM | AUC(0-t) at 24 h [16]: 5650 ng·h/mL | CLint scaled at 0.2 µM [17]: 4.8 mL/min/kg | clearance [18]: 3 mL/min/kg
